Assay results reported in patent US20130143804A1, “Islet Amyloid Polypeptide Toxic Oligomer is a Biomarker of Heart or Kidney Failure in Type-2 Diabetes Mellitus” (Trustees of the University of Pennsylvania, priority 2010, published 2013).
Entries after “also recorded” stand apart in the source; their conditions may differ.

Assays:
[1] = test system: isolated rat cardiac myocytes; experiment: Calcein leak from isolated rat cardiac myocytes incubated with IAPP oligomers; assay type: cell-based; details: incubation for 36 hours
Description: (§1) The level of brain natriuretic peptide (BNP), a molecular marker of hypertrophy, is elevated (by 100±30%) in hearts from pre-diabetic HIP rats vs. age-matched control littermates and further increased with diabetes development (FIG. 12B). […] In contrast, the BNP level is not altered in pre-diabetic UCD-T2DM rats and only increases after the full development of diabetes (FIG. 12B). […] This may indicate that possible pores created in the sarcolemma may be smaller in size than the calcein molecule or significant sarcolemmal damage may require a longer time of incubation.

[2] = test system: sarcolemma in cardiac myocytes; experiment: Cryo-electron microscopy of cardiac myocytes incubated with IAPP oligomers; assay type: cell-based; details: 50 μM IAPP oligomers for 36 hours
Description: FIG. 13 illustrates EM images of cardiac myocytes. Control (A-B) vs. incubated with 50 μM IAPP oligomers for 36 hours (C-H).
as §1

[3] = test system: sarcolemma of cardiac myocytes; experiment: Atomic force microscopy of sarcolemma defect depths on cardiac myocytes; assay type: cell-based; details: cardiac myocytes incubated with IAPP oligomers
Description: FIG. 16 illustrates distribution of sarcolemma defect depths derived from AFM data.
(§2) Oligomerization of Aβ peptides is associated with Alzheimer's disease, and Aβ and IAPP have the same molecular weight sizes and are about 40% identical at the amino acid level.

[4] = Oligomer formation controls, dot blot with A-11 oligomer-specific antibody; assay type: physicochemical; details: 50 μM recombinant protein incubated at room temperature for 24 hours
Description: Dot blots with the A-11 antibody, which is specific for toxic oligomers, show the presence of toxic oligomers amyloidogenic entities within the heart in patients with overweight/obesity (OW/OB) and diabetes (DM) (FIG. 4). Non-failing (NF) hearts from lean (L), L-NF group (control), lack toxic oligomers. The percentage of strong A-11 immunoreactivity signals (darker dots) is somewhat larger in hearts from the patients with diabetes, which also correlates with the western blot analysis indicating rich accumulation of IAPP entities with molecular weights greater than ˜16 kDa in these hearts. Apparently, IAPP oligomers are equally present in both ischemic (ICM) and non-ischemic (DCM) hearts (FIG. 4). […] Dots on the upper, right side corner show positive (human IAPP) and negative (rat IAPP) controls for oligomer formation (50 μM recombinant protein incubated at room temperature for 24 hours) (FIG. 4). Before the test with A-11 antibody, all protein homogenate samples were incubated with Protein A-coated magnetic beads to extract IgG, a possible source of cross-reactivity.

[5] = test system: isolated rat cardiac myocytes; details: external human IAPP; Bell et al. 1995; cited from earlier work
rat cardiac myocytes = experiment: Ca2+ transients in isolated rat cardiac myocytes incubated with exogenous IAPP, field stimulation; assay type: cell-based
Description: FIG. 8 illustrates that exogenous IAPP oligomers increase Ca^2+ transient amplitude in isolated rat cardiac myocytes.(A) Representative experiments in a control (top panel) myocyte and a cell pre-incubated with 50 μM hIAPP (bottom panel). (B-C) Effect of rat (B) and human (C) IAPP on Ca^2+ transient amplitude. […] For each group, measurements were done on ≧6 myocytes from 3 different rats.
Rat cardiac myocytes were incubated with exogenous human (amyloidogenic) and rat (non-amyloidogenic) IAPP and measured Ca2+ transients produced by field-stimulation at various frequencies (FIG. 8A).
as §2

[6] = 50 μM IAPP, all stimulation frequencies

Substance | calcein leak from the cytoplasm [1] | structural modification of the sarcolemma (EM) [2] | sarcolemma thinning (density of thin patches, AFM) [3] | oligomer formation (A-11 dot blot control) [4] | hypertrophy induction [5] | Ca2+ transient amplitude (rat cardiac myocytes; 5 μM IAPP, monomeric form) | Ca2+ transient amplitude (rat cardiac myocytes; [6]) | Ca2+ transient amplitude (rat cardiac myocytes; 50 μM IAPP, all stimulation frequencies, listed as Human IAPP)
IAPP oligomers: exogenous oligomers that human IAPP rapidly forms at 50 μM (KCNTATCATQLANFLVHSSNNFGAILSSTNVGSNTY) | does not reveal release of calcein; also recorded: does not induce significant calcein leak | significant structural modification of the sarcolemma | induce sarcolemma thinning; also recorded: Density of thin sarcolemma patches is higher | – | – | – | – | –
human IAPP: human islet amyloid polypeptide, amyloidogenic, SEQ ID NO: 1 KCNTATCATQRLANFLVHSSNNFGAILSSTNVGSNTY (KCNTATCATQLANFLVHSSNNFGAILSSTNVGSNTY; listed as Homo sapiens) | – | – | – | positive | induces hyperthrophy | modest increase | marked rise | significantly increased
rat IAPP: rat islet amyloid polypeptide, non-amyloidogenic, SEQ ID NO: 2 KCNTATCATQRLANFLVRSSNNLGPVLPPTNVGSNTY (KCNTATCATQLANFLVRSSNNLGPVLPPTNVGSNTY; listed as Mus musculus) | – | – | – | negative | – | modest increase | modest, not significant effect; also recorded: no further effect | –
